Assays:
[1] = test system: HL-60 (promyelocytic leukemia); assay: Sulforhodamine B cytotoxicity assay, HL-60; type: cell-based; details: Homo sapiens, transformed, 72 hours
Procedure: (§1) 1. Preparation of target cells in 96-well plates
(§2) 2. Preparation of sample drugs and toxic control a. Stock drug solutions were prepared by dissolving drug in the appropriate solvent (determined during chemical characterization studies) and sterile filtering the drug-solvent solution through a sterile 0.2 μ filter unit. An aliquot was taken from each filtered drug solution and the O.D. was measured to determine the drug concentration. […]
(§3) b. Dilute the stock drug solution prepared above with T.C. medium to the desired initial concentration (10^-2 -10^-4 M). A minimum volume of 220 μL of diluted drug is required per 96-well plate used in the assay.
(§4) 3. Addition of Sample Compounds and Controls to 96-well Plates b. Add 100 μL of the initial .compound dilution to adjacent duplicate wells in Columns #2. (Four materials can be tested in duplicate per 96-well plate.) c. Remove 10 μL of diluted compound from the wells in Column #2 and transfer to the corresponding wells in Column #3. Mix by pipetting up and down gently approximately five times. d. Transfer 10 μL to the appropriate wells in Column #4 and continue to make […] dilutions of compound across the plate through Column #12. f. Incubate (37° C., 5-10 percent CO2 in humidified incubator) plates for a total of 72 hours. […]
(§5) IC50 values; i.e., the concentration of Compound required to kill one-half of the treated cells, were then calculated. […]

HT-29 (colon carcinoma) = assay: Sulforhodamine B cytotoxicity assay, HT-29; type: cell-based; details: Homo sapiens, transformed, 72 hours
Procedure: as §1, §2, §3, §4, §5

MCF-7 (breast carcinoma) = assay: Sulforhodamine B cytotoxicity assay, MCF-7; type: cell-based; details: Homo sapiens, MCF7, transformed, 72 hours
Procedure: as §1, §2, §3, §4, §5

MOLT-4 (T cell leukemia) = assay: Sulforhodamine B cytotoxicity assay, MOLT-4; type: cell-based; details: Homo sapiens, transformed, 72 hours
Procedure: as §1, §2, §3, §4, §5

SK-Mel-28 (melanoma) = assay: Sulforhodamine B cytotoxicity assay, SK-Mel-28; type: cell-based; details: Homo sapiens, transformed, 72 hours
Procedure: as §1, §2, §3, §4, §5

[2] = test system: Copan-1 (pancreatic carcinoma); assay: Sulforhodamine B cytotoxicity assay, Copan-1; type: cell-based; details: transformed, 72 hours
Procedure: as §1, §2, §3, §4, §5

P-388 (mouse leukemia) = assay: Sulforhodamine B cytotoxicity assay, P-388; type: cell-based; details: P388, transformed, 72 hours
Procedure: as §1, §2, §3, §4, §5

[3] = test system: Ovcar-3 (ovarian carcinoma); assay: Sulforhodamine B cytotoxicity assay, Ovcar-3; type: cell-based; details: Homo sapiens, transformed, 72 hours
Procedure: as §1, §2, §3, §4, §5

UCLA-P3 (lung carcinoma) = assay: Sulforhodamine B cytotoxicity assay, UCLA-P3; type: cell-based; details: Homo sapiens, UCLA P-3, transformed, 72 hours
Procedure: as §1, §2, §3, §4
(§6) IC50 values; i.e., the concentration of Compound required to kill one-half of the treated cells, were then calculated.

[4] = test system: HMEC (human mammary epithelial cells); assay: Sulforhodamine B cytotoxicity assay, HMEC; type: cell-based; details: non-transformed, 72 hours
Procedure: as §1, §2, §3, §4, §6

[5] = test system: NHDF (normal human dermal fibroblasts); assay: Sulforhodamine B cytotoxicity assay, NHDF; type: cell-based; details: non-transformed, 72 hours
Procedure: as §1, §2, §3, §4, §6

CHO cells = assay: Sulforhodamine B cytotoxicity assay, CHO; type: cell-based; details: Cricetulus griseus, non-transformed, 72 hours
Procedure: as §1, §2, §3, §4, §5

[6] = test system: PBL (human peripheral blood lymphocytes); assay: Sulforhodamine B cytotoxicity assay, PBL; type: cell-based; details: Lymphocyte, non-transformed, 72 hours
Procedure: as §1, §2, §3, §4, §6

[7] = test system: transformed, cancerous cell lines; assay: Cytotoxicity comparison with daunomycin, cancer cell lines; type: cell-based
Procedure: SULFORHODAMINE B CYTOTOXICITY ASSAY
as §6
All other cells or cell lines were obtained from the American Type Culture Collection (ATCC) (all except CHO cells are human or mouse cancer cell lines as described by the ATCC).

LD50 in mice = details: mouse, in vivo, ip, here found
Procedure: Daunomycin has a reported LD50 in mice of 20 mg/kg when administered intravenously (i.v.) and 5 mg/kg when administered intraperitoneally (i.p.) [Merck Index, 11th ed., Merck & Co., Inc., Rahway, N.J., page 445 (1989)].

[8] = test system: EMT-6 mammary tumor cells; assay: In vivo mouse study, EMT-6 mammary tumor
Procedure: FIG. 1 is a graph showing the average tumor size in 6-10 week old female Balb/c BYJ mice inoculated with EMT-6 mammary tumor cells. Control mice (open squares) were treated with normal saline on days 1, 5 and 9 after inoculation. Study mice (X's) were treated with an equal volume of normal saline containing 15 mg/kg of Compound I on those same days post inoculation with the tumor cells.
The data of FIG. 1 illustrate an in vivo study using Compound 1. Here, groups of 6-10 week old, female Balb/c BYJ mice (obtained from The Scripps Research Institute breeding colony, La Jolla, Calif.) (8 per group) were inoculated with 5×10^5 cells of the EMT6 tumor cell line, a mammary tumor. The mice were then treated with normal saline (control) or normal saline containing 15 mg/kg of Compound 1 (study) on days 1, 5 and 9 after the inoculation.
The average tumor volume was then calculated for each group of mice.

mice = details: i.v., Merck Index; cited from earlier work
[9] = first four cancer cell lines (two leukemias and two carcinomas)

| Structure (SMILES) | IC50 [1] [nM] | IC50 (HT-29 (colon carcinoma)) [nM] | IC50 (MCF-7 (breast carcinoma)) [nM] | IC50 (MOLT-4 (T cell leukemia)) [nM] | IC50 (SK-Mel-28 (melanoma)) [nM] | IC50 [2] [nM] | IC50 (P-388 (mouse leukemia)) [nM] | IC50 [3] [nM] | IC50 (UCLA-P3 (lung carcinoma)) [nM] | IC50 [4] [nM] | IC50 [5] [nM] | IC50 (CHO cells) [nM] | IC50 [6] [nM] | potency relative to daunomycin [7, 9] | LD50 (LD50 in mice) [mg/kg] | also measured |
| --- | --- | --- | --- | --- | --- | --- | --- | --- | --- | --- | --- | --- | --- | --- | --- | --- |
| COc1cccc2c1C(=O)c1c(O)c3c(c(O)c1C2=O)C[C@@](O)(C(C)=O)C[C@@H]3O[C@H]1C[C@H](NC(=O)OCCS(=O)(=O)c2ccccc2)[C@H](O)[C@H](C)O1 [Compound 1, 8-Acetyl-10-[[3-[N-[2-(phenylsulfonyl)-ethoxycarbonyl]]amino-2,4,6-trideoxy-1-lyxo-hexapyranosyl]oxy]-7,8,9,10-tetrahydro-6,8,11-trihydroxy-1-methoxy-5,12-naphthacenedione] | 98 | 780 | 780 | 1 | 3100 | 780 | 780 | 1600 | 3100 | 13000 | 13000 | 6300 | 25000 | same potencies | ~35 | cancer cell cytotoxicity difference between Compound 1 and daunomycin ([7]; cancer cells): no difference to a four-fold difference; potency relative to daunomycin ([7]; final two carcinoma cell lines): about one-fourth the potency of daunomycin; potency relative to daunomycin ([7]; second three cancer cell lines (melanoma, pancreatic carcinoma and mouse leukemia)): about one-half the potency of daunomycin; tumor burden of treated mice vs control ([8]; 15 mg/kg on days 1, 5 and 9, between days 14 and 16): about one-third the tumor burden of the control group; average tumor volume vs control ([8]; 15 mg/kg on days 1, 5 and 9, by day 8 post inoculation): slight difference in the average volume of the tumors, with the study group having a lower tumor burden; control group's average tumor volume relative to study group ([8]; 15 mg/kg on days 1, 5 and 9, by day 20 post inoculation): about twice that of the study group; growth of mammary tumors ([8]; EMT-6 implanted in mice): retarded the growth of mammary tumors |
| COc1cccc2c1C(=O)c1c(O)c3c(c(O)c1C2=O)C[C@@](O)(C(C)=O)C[C@@H]3O[C@H]1C[C@H](N)[C@H](O)[C@H](C)O1 [Daunomycin] | < 98 | 780 | 780 | 1 | 1600 | 390 | 390 | 390 | 730 | 390 | 190 | 390 | 780 | same potencies | ~12 | LD50 (mice): 20 mg/kg |
